Where “and” joins values, the source holds several entries; their conditions need not be identical. Equal values may be shown once. Entries after “also recorded” stand apart in the source; their conditions may differ. Read-outs that look alike come from different tables or passages of the source.

Data set [1] is described as follows: Chemical stability in isotonic saline and phosphate buffer (Example A). It is filed as physicochemical.
Data set [2] can be described thus: Stability in plasma (Example C). It is filed as in vitro ADME, rat. The conditions noted are these: 37°C, 5-8 hours, reverse phase HPLC.
Method: Methods: Compounds were incubated in plasma at 37°C, and aliqouts removed at appropriate time points over the course of 5-8 hours. The aliquots were extracted with 1.5 volumes of methanol and clarified by centrifugation. Supernatants were then evaporated to dryness and the residues reconstituted with 100 µL of isotonic saline and then analyzed by reverse phase HPLC.
Data set [3] deals with microsomal fraction of human liver. The experiment in a line: Activation by human liver microsomes (Example E). It is filed as in vitro ADME. On the procedure:
7.1, 1.3, and 30.1 were tested for conversion to their respective parent compounds by the microsomal fraction of human liver.
(Liver microsomes are a subcellular fraction often used to study metabolism.)

Another data set relates to human liver microsomes. The experiment in a line: Identification of the p450 isozyme involved in activation, with specific p450 inhibitors (Example F). It is filed as in vitro ADME. The conditions noted are these: 250 µM prodrug, ketoconazole, furafylline, sulfaphenazole as inhibitors. On the procedure:
Reactions were stopped by addition of methanol to a concentration of 60%, filtered (0.2 µM filter), and lyophilized. Samples were resuspended in HPLC buffer (10 mM phosphate pH 5.5, 2.5 mM octyl-triethyl-ammonium), loaded onto a YMC C8 HPLC column (250 x 4.6 mm), and eluted with a methanol gradient to 80%.

The next data set concerns recombinant CYP3A4. The experiment in a line: Activation by recombinant CYP3A4 (Example G). It is filed as in vitro ADME. The following applies: 30.1 at 250 µM, 37°C, NADPH dependent, linear for 30 minutes. On the procedure: Activation of 30.1 and 28.4 was evaluated in reactions containing microsomes from baculovirus-infected insect cells co-expressing recombinant CYP3A4 and cytochrome p450 reductase (Panvera Corp., Madison, WI).
Methods: Reaction mixture composition was similar to that described in Example E. Reactions were terminated by addition of methanol to a final concentration of 60%, and products typically analyzed by HPLC with use of a YMC reverse phase C8 column (250 x 4.6 mm). […] The effluent was monitored at 254 nm.

Data set [4] in a line: Pharmacokinetics of 30.1 after intravenous dosing (Example N). The conditions noted are these: for half-life: 20 mg/kg. It is filed as in vivo, rat. On the procedure: The pharmacokinetics of 30.1 were evaluated in the rat.
Methods: 30.1 was administered at 20 mg/kg to fasted rats via the tail vein under light halothane anesthesia. At apropriate time points following drug administration, rats were re-anesthetized with halothane. The peritoneal cavity was then opened and a blood sample was obtained from the abdominal vena cava and the liver freeze-clamped and excised. Blood samples were briefly centrifuged and the plasma fraction was then extracted with 1.5 volumes of methanol, processed, and analyzed by HPLC as described in Example A. Liver samples were excised, frozed in liquid nitrogen, and then homogenized in 100% methanol. Liver extracts were then centrifuged at 14,000 rpm and the methanolic supernatants subsequently filtered and evaporated to dryness. Samples were resuspended in isotonic saline and analyzed by HPLC as described in Example A. Pharmacokinetic parameters were determined with the aid of WinNonLin version 1:1 (Scientific Consulting, Inc.) software. Renal excretions studies were performed as described in Example Q.

Data set [5] can be described thus: Liver ara-ATP and plasma/urine ara-hypoxanthine after intravenous dosing (Example O). It counts as in vivo, rat. On the procedure: The temporal profile of ara-hypoxanthine and ara-ATP generation following intravenous administration of 30.1 and free ara-AMP was compared in the rat.
Method: 30.1 and ara-AMP (Sigma) were administered to normal, fasted rats intravenously (in saline) via tail vein catheters. At appropriate time points following drug a administration, animals were lightly anesthetized with halothane. The peritoneal cavity was then opened and a blood sample was obtained from the abdominal vena cava and the liver freeze-clamped and excised.
The blood samples were heparinized and plasma was prepared. Plasma samples (100 µL) were mixed with 4 N perchloric acid (40 µL), vortexed, and then clarified by centrifugation. The supernatants were analyzed for ara-hypoxanthine by HPLC with use of a Beckman Ultrasphere ODS column (4.6 x 150 mm). The column was eluted with 100 mM acetic acid at a flow rate of 1.0 mL/min. The eluent was monitored by UV absorbance at 254 nm.
Livers were immediately homogenized in 3 volumes of 10% perchloric acid (w/w), and the extracts clarified by centrifugation at 2500 x g (5 minutes). The resulting supernatants were removed and neutralized with 0.3 volumes of 3M KOH/ 3M KHCO3. The neutralized liver extracts were then spun in an Eppendorf microfuge at 10,000 rpm (20 minutes, 4°C). The supernatants were analyzed for ara-ATP content by reverse phase HPLC (HP1050) using a Whatman Partisphere SA column (4.6 x 125 mm). A gradient from 0.3M ammonium phosphate buffer pH 3.5 to 0.8M ammonium phosphate pH 3.5 was run (1 ml/minute flow rate).
Renal excretion of araH following i.v. administration of 30.1 or ara-AMP was determined as described in Example Q.

Data set [6] in a line: Preliminary 22-day toxicological evaluation, intraperitoneal (Example R). It counts as in vivo, mouse. The conditions noted are these: i.p. 10 and 100 mg/kg b.i.d. for 22 days, doses up to 200 mg/kg/d.
Excerpt: Death and other obvious signs of toxicity such as weight loss, tremors, ruffling fur, hunching, prostration, diarrhea, lethargy, and hyperactivity were monitored.
Data set [7] is described as follows: Activation in tissue homogenates, tissue distribution (Example T). It is filed as in vitro ADME, rat. The following applies: liver cytosol, which does not contain microsomes. On the procedure:
30.1 is tested for activation in homogenates from various tissues to assess the specificity of liver activation.
Methods: Rats are anaesthetized under halothane and tissues including liver, kidney, brain , heart, stomach, spleen, muscle, lung, and testis are excised and frozen in liquid nitrogen. Tissues are then homogenized in 1 to 3 volumes of 50 mM Tris/HCl, 154 mM KCl, 1 mM EGTA pH 7.4. The homogenate is centrifuged at 10,000 rpm and 4°C for 30 minutes and the supernatant recovered. Liver cytosol is prepared by centrifuging the liver crude extract for 1 hour at 40,000 rpm and 4°C. Reaction mixtures consist of 50 mM KH2PO4 pH 7.4, 13 mM glucose-6-phosphate, 2 mM NADP^+, 10 units of glucose-6-phosphate dehydrogenase, 100 µM 30.1 and tissue homogenate at a protein concentration of 8.5 mg/ml. Reactions are incubated at 37°C. Aliquots are taken after 0 and 1 hour of incubation, and extracted with 60 % methanol. The methanolic extracts are centrifuged at 14,000 rpm, and filtered prior to analysis by HPLC. The samples are loaded onto a YMC C8 column equilibrated with 0.1% TFA and eluted with a methanol gradient to 80%. The activation of 30.1 to ara-AMP is monitored at […]

Data set [8] concerns isolated rat hepatocytes. In words: Active drug metabolites formed after prodrug activation in isolated rat hepatocytes (Example K). The conditions noted are these: Dose 100 µM, time point 2h.
Method: Methods: Hepatocytes were prepared and incubated as described in Example I. 28.4 and 30.1 and their respective parent compounds, PMEA and ara-AMP, were dissolved in DMSO or methanol to yield 10 mM stock solutions, and then diluted into the cell suspension to yield a final concentration of 100 µM. At appropriate time points over the course of 2-4 hours, aliquots of the cell suspension were removed and spun through a silicon/mineral oil layer into 10% perchloric acid. The cell extracts in the acid layers were neutralized by the addition of 0.3 volumes of 3M KOH/3M KHCO3, and the extract was then centrifuged, filtered (0.2 micron filter) and loaded onto an anion exchange HPLC column equilibrated with 70% A (10 mM ammonium phosphate pH 3.5, 6% ETOH) and 30% B (1 M ammonium phosphate pH 3.5, 6% ETOH). Ara-ATP and PMEApp were eluted with a gradient to 80% B. Detection was at 254 nm.
Data set [9] in a line: Oral bioavailability by urinary excretion method (Example M). It counts as in vivo. The conditions noted are these: rat, urine, parent compound, read-out: % OBAV Parent.
Method: The oral bioavailability of prodrugs of a variety ofphosphonic acid FBPase inhibitors was estimated by a urinary excretion method in rat.
The quantity of parent compound excreted into urine was determined by HPLC analysis. An ODS column eluted with a gradient from potassium phosphate buffer, pH 5.5 to acetonitrile was employed for these measurements. Detection was at 310-325 nm.
Data set [10] concerns isolated rat hepatocytes. The experiment in a line: Activation to parent compound in isolated rat hepatocytes (Example I). It is filed as cell-based. The conditions noted are these: 100 µM prodrug. The text has this: An ODS column was used for analysis. […] Detection was at 310 nm.
Data set [11] deals with glucose production in isolated rat hepatocytes. The experiment in a line: Inhibition of glucose production in rat hepatocytes (Example J). It is filed as cell-based. The conditions noted are these: Rattus norvegicus, Hepatocyte; 1 hour, lactate 10 mM / pyruvate 1 mM. On the procedure: Select prodrugs of FBPase inhibitors were tested for inhibition of glucose production in isolated rat hepatocytes.
After a 10 minute equilibration period, lactate and pyruvate were added to 10 mM and 1 mM concentrations, respectively. Addition of gluconeogenic substrates was immediately followed by that of appropriate concentrations of test compound. After 1 hour, an aliquot (0.25 ml) was removed, transferred to an Eppendorf tube and centrifuged. The supernatant (50 µl) was then assayed for glucose content using a Glucose Oxidase kit (Sigma Chemical Co.) as per the manufacturer's instructions.

Data set [12] in a line: Delivery of parent compound to liver after intraperitoneal prodrug (Example U). It is filed as in vivo, rat. The following applies: 1.3 at 50 mg/kg i.p.; the last time point measured. On the procedure: Methods: 1.3 was dissolved in DMSO and administered intraperitoneally to fasted rats at a dose of 50 mg/kg. At various time points following drug administration, animals were anesthetized with halothane. The peritoneal cavity was then opened and a blood sample was obtained from the abdominal vena cava and the liver freeze-clamped and excised. Blood and liver samples were processed as described in Example P and analyzed for 6-Amino-9-neopentyl-8-(2-phosphonofuranyl)purine content as described in Example I.

Broadly, the half-life is the time in which the quantity being followed falls by half. A word on the clearance: it is a measure of how efficiently the substance is removed, as volume per time. Read a low clearance as a low capacity for elimination. Regarding `Nc1ncnc2c1ncn2[C@@H]1O[C@H](COP2(=O)OCCC(c3ccncc3)O2)[C@@H](O)[C@@H]1O` (stereo partly drawn) [Compound 30.1, Adenine-9-beta-D-arabinofuranoside-5'-[1-(4-pyridyl)-1,3-propyl]monophosphate], the “stability / decomposition of 30.1” value in data set [1] (10 µg/mL in isotonic saline and 100 mM potassium phosphate buffers pH 3, 7 and 9, room temperature, sampled 1, 2, 5, 7 days, HPLC) was “stable for at least seven days; also recorded: No decomposition”. The “metabolism / degradation in fresh rat plasma” value in [2] is reported as “not degraded; also recorded: no evidence of metabolism”. The “reaction rate for the formation of ara-AMP” value in [3] (250 µM 30.1, 37°C, human liver microsomes) was 0.12 nmoles/min/mg of microsomal protein. Besides, the “primary p450 isoform responsible for activation in human liver” value in the data set on human liver microsomes is listed as “CYP3A4”. The “rate of formation of ara-AMP” value with recombinant CYP3A4 is 3.3 ± 0.5 nmoles/ min/ nmole CYP3A4. Besides, the “concentration of prodrug observed in liver” value in data set [4] (20 mg/kg i.v., at 20 minutes) is recorded as ~ 20 nmoles/g. For the same compound, the half-life in data set [4] (rat, liver, iv, 20 mg/kg i.v., read-out: liver half life (converted)) was 54 min; in data set [4] (rat, plasma, iv, 20 mg/kg i.v., read-out: plasma half life (converted)), 11.4 min; in [4] (rat, plasma, iv, 30.1 in rat, restated in Example S, read-out: plasma half-life), 12 min. This compound had a clearance in [4] (rat, plasma, iv, 20 mg/kg i.v.) of 55.7 mL/min/kg. Further, the MRT in [4] (rat, plasma, iv, 20 mg/kg i.v., read-out: mean residence time) amounted to 12.6 min. Moreover, in data set [4] (rat, plasma, iv, 20 mg/kg i.v., read-out: volume of distribution), the Vd came to 0.7 L/kg. For the same compound, the dose excreted at 24 h in data set [4] (rat, urine, iv, 24 hr urine, read-out: urinary (renal) excretion (24hr)) is ~58%. Besides, in [5] (30.1 i.v. 10 and 3 mg/kg vs araAMP 10 mg/kg), the “amount of araATP per gram of liver over time (Figure 1A)” value is given as “Significantly higher liver levels”. The ara-hypoxanthine in urine entry in data set [5] (i.v. 30.1) is listed as “Nor was ara-hypoxanthine detected in urine”. In [5] (i.v., 30.1 at 10 and 3 mg/kg, ara-AMP at equivalent doses), the “ara-hypoxanthine (araH) in plasma” value was “virtually no araH; also recorded: not detected”. In data set [5] (i.v., summary statements of Example O), the “liver levels of araATP relative to araA or araAMP” value is 2-5 fold and 2- to 5 fold. Besides, the “mortality and obvious signs of toxicity” value in [6] was “safely administered”. In addition, the “activation of 30.1 to ara-AMP” value in data set [7] was “does not result in activation”. Moreover, the “Product concentration nmoles/g cells (ara-ATP)” value in the data set with isolated rat hepatocytes [8] amounted to 108±4 nmoles/g cells.

`CC(C)Cn1c(-c2ccc(P(=O)(O)O)o2)nc2ccc(Cl)cc21` [6-Chloro-1-isobutyl-2-(2-phosphono-5-furanyl) benzimidazole]: the bioavailability at 24 h in [9] stood at 0.5%.

In general, IC50 refers to the concentration that gives 50% inhibition. For `CC(C)(C)Cn1c(-c2ccc(P3(=O)OC4CC(O)CC(C4)O3)o2)nc2c(N)ncnc21` (single isomer, unassigned) [Compound 1.3, 6-Amino-8-(5'-hydroxyl-1',3' cyclohexyl)phosphonofuranyl-9-neopentyl purine], in data set [1] (100 µM in phosphate buffer pH 7.4, 1 hour at room temperature), the “stability of 1.3” value is “fully stable”. Besides, the “metabolism / degradation in fresh rat plasma” value in [2] is listed as “no evidence of metabolism”. In addition, the “rate of formation of parent compound” value in data set [3] (250 µM prodrug, 37°C, NADPH-generating system) is on record as 0.55 nmoles/mg microsomal protein/minute. Besides, the “intrahepatocyte levels of parent compound 6-Amino-9-neopenhyl-8-(2-phosphonofuranyl)purine” value in the data set with isolated rat hepatocytes [10] is “similarly high levels”. The IC50 in data set [11] turned out to be 13 µM. Further, in data set [12], the “persistence of 6-Amino-9-neopentyl-8-(2-phosphonofuranyl)purine in plasma and liver” value is 4 h.

(Values after patent EP1060182B1, “NOVEL PRODRUGS FOR PHOSPHORUS-CONTAINING COMPOUNDS” (Metabasis Therapeutics, Inc., priority 1998, dated 1999).)
